Here are results for one compound from US8048869B2, “Pharmaceutical composition for use in hormone replacement therapy” (Pantarhei Bioscience B.V., priority 2001, dated 2011).

One series concerns the target T1, human ERα (Homo sapiens, UniProt P03372).
T1 sequence (P03372 1-595): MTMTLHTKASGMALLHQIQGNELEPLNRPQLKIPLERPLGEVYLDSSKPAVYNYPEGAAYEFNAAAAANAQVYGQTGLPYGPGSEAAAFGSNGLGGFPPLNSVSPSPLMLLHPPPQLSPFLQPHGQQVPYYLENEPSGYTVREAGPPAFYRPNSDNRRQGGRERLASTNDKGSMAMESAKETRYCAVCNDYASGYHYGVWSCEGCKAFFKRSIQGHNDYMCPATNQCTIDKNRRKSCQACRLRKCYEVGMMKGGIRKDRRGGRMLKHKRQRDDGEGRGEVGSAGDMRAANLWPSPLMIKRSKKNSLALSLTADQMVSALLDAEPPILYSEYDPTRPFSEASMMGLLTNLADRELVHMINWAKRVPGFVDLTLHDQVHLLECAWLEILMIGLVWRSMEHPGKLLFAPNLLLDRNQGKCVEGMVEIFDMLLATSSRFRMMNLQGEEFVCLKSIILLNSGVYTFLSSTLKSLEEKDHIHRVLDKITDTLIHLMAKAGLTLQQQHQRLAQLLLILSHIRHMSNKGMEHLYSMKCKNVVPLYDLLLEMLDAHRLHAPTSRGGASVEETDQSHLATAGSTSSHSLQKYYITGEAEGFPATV
Briefly: Competitive steroid binding assay, ERα. The conditions noted are these: from Ki values for human ERα and ERβ.

Another series relates to immature rat uterus. The conditions noted are these: subcutaneously administered; cited from earlier work.
The conditions of series [1]: tritium labeled, intravenously, two adult women; cited from earlier work.

Regarding `C[C@]12CC[C@@H]3c4ccc(O)cc4CC[C@H]3[C@@H]1[C@@H](O)[C@@H](O)[C@@H]2O` [E4, 1,3,5 (10)-estratrien-3,15α,16α,17β-tetrol], the “Relative ERα/ERβ preference” value on human ERα was found to be 400%. For the same compound, the uterotrophic activity result in the series on immature rat uterus was “very weak uterotrophic activity”. The excretion and metabolism result in series [1] was “rapidly and completely excreted in urine as the glucosiduronate”.
